The format of this data set is physicochemical. As for the experimental part:
In one approach, the HOF encapsulated guest was prepared by dissolving trimesic acid and guest in methanol a 1:8 molar ratio. The mixture was stirred at room temperature for up to 48 hours. The solution was then left undisturbed allowing for slow evaporation to take place until crystals were obtained. For particularly oily guest molecules, an additional solvent was required to dissolve trimesic acid. Successful guest uptake was confirmed by single crystal X-ray diffraction (SCXRD). Thermogravimetric analysis was used to monitor the weight loss as a function of temperature, and ^1H NMR was used to confirm the presence of both host and guest in the sample.
In order to determine to what extent a particular guest is included within the host structure, we carried out thermal gravimetric analysis (TGA) on the resulting samples. A typical TGA measurement will record the weight-loss as a function of temperature and this will allow us to estimate the relative amount of solvent/guest/host present in a particular sample. […] The host itself begins to thermally degrade at around 250° C.

For `O=C(O)c1cc(C(=O)O)cc(C(=O)O)c1` [trimesic acid], the “temperature at which the host begins to thermally degrade” value was “around 250 °C”.
